Experiments:
[1] = Oral PK profile in rats, plasma hydrocodone and hydromorphone by LC-MS/MS
[2] = Intranasal PK profile in rats, plasma hydrocodone and hydromorphone by LC-MS/MS
[3] = Water solubility / feasibility of intravenous or intranasal dosing; conditions: with regard to intravenous or intranasal dosing at oral equivalent doses
[4] = Chemical stability: hydrolysis to hydrocodone in 1N HCl; conditions: 1 hour
[5] = Chemical stability: hydrolysis in 5% NaHCO3; format: physicochemical; conditions: 5% NaHCO3, one hour
[6] = equivalent to 2 mg/kg freebase hydrocodone, FIG. 7
[7] = equivalent to 2 mg/kg freebase hydrocodone, FIG. 8

## COc1ccc2c3c1OC1C(OC(=O)/C=C/c4ccccc4)=CCC4C(C2)N(C)CCC314 (stereo not drawn) [Cinnamate-HC, cinnamate-hydrocodone]
[1]; equivalent to 2 mg/kg freebase hydrocodone, FIG. 9
  hydrocodone plasma concentrations during subsequent elimination compared with Hydrocodone.BT: similar

## COc1ccc2c3c1O[C@H]1C(=O)CC[C@H]4[C@@H](C2)N(C)CC[C@]314.O=C(O)C(O)C(O)C(=O)O [Hydrocodone.BT, hydrocodone bitartrate]
[2]; Example 6, FIG. 11
  hydrocodone AUC, higher than Ibu-HC: approximately 300%
  hydrocodone Cmax, higher than Ibu-HC: ~525%

## COc1ccc2c3c1OC1C(OC(=O)COCC(=O)O)=CC[C@H]4[C@@H](C2)N(C)CC[C@]314 (stereo partly drawn) [Diglycolate-HC]
[3]
  water solubility: water-soluble

## COc1ccc2cc(C(C)C(=O)OC3=CCC4C5Cc6ccc(OC)c7c6C4(CCN5C)C3O7)ccc2c1 (stereo not drawn) [Naproxen-HC, naproxen-hydrocodone]
[4]; ambient (~20° C.)
  initial amount of conjugate hydrolyzed: 0%
[4]; oil bath 100° C.
  initial amount of conjugate hydrolyzed: 33%
[5]; ambient (~20° C.)
  initial amount of conjugate hydrolyzed: 0%
[5]; oil bath 100° C.
  initial amount of conjugate hydrolyzed: 8%

## COc1ccc2c3c1OC1C(OC(=O)CCCCC(=O)O)=CC[C@H]4[C@@H](C2)N(C)CC[C@]314 (stereo partly drawn) [Adipate-HC]
[4]; ambient (~20° C.)
  initial amount of conjugate hydrolyzed: 13%
[4]; oil bath 100° C.
  initial amount of conjugate hydrolyzed: 100%
[5]; ambient (~20° C.)
  initial amount of conjugate hydrolyzed: 3%
[5]; oil bath 100° C.
  initial amount of conjugate hydrolyzed: 100%
[2]; [6]
  hydrocodone AUC, higher than Ibu-HC: approximately 170%
  hydrocodone Cmax, higher than Ibu-HC: ~245%
[2]; [7]
  hydromorphone AUC, higher than Ibu-HC: approximately 940%
  hydromorphone Cmax, higher than Ibu-HC: ~1,010%
[3]
  water solubility: water-soluble

## COc1ccc2c3c1OC1C(OC(=O)C(C)c4ccc(CC(C)C)cc4)=CCC4C(C2)N(C)CCC314 (stereo not drawn) [Ibu-HC, ibuprofen-hydrocodone]
[5]; ambient (~20° C.)
  initial amount of conjugate hydrolyzed: 0%
[5]; oil bath 100° C.
  initial amount of conjugate hydrolyzed: 22%
[2]; Example 6, FIG. 11
  hydrocodone plasma concentrations compared with Hydrocodone.BT: significantly lower
[2]; Example 6, FIG. 12
  hydromorphone plasma concentration compared with Hydrocodone.BT: very low plasma concentration
[2]; [6]
  hydrocodone plasma concentrations compared with Adipate-HC: significantly lower
[2]; [7]
  hydromorphone plasma concentration compared with Adipate-HC: very low plasma concentration
[3]
  water solubility: very low water solubility
[1]; equivalent of 2 mg/kg hydrocodone freebase, FIG. 6
  hydromorphone AUC compared with Diglycolate-HC: similar
[1]; equivalent to 2 mg/kg freebase hydrocodone, FIG. 9 and FIG. 10
  hydrocodone and hydromorphone plasma concentrations compared with unconjugated Hydrocodone.BT: similar
[1]; same dose based on hydrocodone freebase
  AUC and Cmax values (hydrocodone and hydromorphone) compared with Hydrocodone.BT: within the range of bioequivalence

Source: patent US20120142720A1, “Phenylethanoic Acid, Phenylpropanoic Acid and Phenylpropenoic Acid Conjugates and Prodrugs of Hydrocodone, Methods of Making and Use Thereof” (KEMPHARM, INC., priority 2009, published 2012)
